Where two headings read alike, the source gives them in different places.
How the values were obtained:
human TLR7 = target: T1, human TLR7 (Homo sapiens, UniProt Q9NYK1); assay: Human TLR7 agonist activity assay (HEK-Blue TLR7 SEAP reporter); type: cell-based; details: HEK-Blue TLR7 cells, 18 h treatment, average where assay was performed multiple times, read-out: hTLR7 Agonism EC50
T1 construct: host or cells: HEK-Blue TLR7 cells (engineered human embryonic kidney cells)
T1 sequence (Q9NYK1 27-1049): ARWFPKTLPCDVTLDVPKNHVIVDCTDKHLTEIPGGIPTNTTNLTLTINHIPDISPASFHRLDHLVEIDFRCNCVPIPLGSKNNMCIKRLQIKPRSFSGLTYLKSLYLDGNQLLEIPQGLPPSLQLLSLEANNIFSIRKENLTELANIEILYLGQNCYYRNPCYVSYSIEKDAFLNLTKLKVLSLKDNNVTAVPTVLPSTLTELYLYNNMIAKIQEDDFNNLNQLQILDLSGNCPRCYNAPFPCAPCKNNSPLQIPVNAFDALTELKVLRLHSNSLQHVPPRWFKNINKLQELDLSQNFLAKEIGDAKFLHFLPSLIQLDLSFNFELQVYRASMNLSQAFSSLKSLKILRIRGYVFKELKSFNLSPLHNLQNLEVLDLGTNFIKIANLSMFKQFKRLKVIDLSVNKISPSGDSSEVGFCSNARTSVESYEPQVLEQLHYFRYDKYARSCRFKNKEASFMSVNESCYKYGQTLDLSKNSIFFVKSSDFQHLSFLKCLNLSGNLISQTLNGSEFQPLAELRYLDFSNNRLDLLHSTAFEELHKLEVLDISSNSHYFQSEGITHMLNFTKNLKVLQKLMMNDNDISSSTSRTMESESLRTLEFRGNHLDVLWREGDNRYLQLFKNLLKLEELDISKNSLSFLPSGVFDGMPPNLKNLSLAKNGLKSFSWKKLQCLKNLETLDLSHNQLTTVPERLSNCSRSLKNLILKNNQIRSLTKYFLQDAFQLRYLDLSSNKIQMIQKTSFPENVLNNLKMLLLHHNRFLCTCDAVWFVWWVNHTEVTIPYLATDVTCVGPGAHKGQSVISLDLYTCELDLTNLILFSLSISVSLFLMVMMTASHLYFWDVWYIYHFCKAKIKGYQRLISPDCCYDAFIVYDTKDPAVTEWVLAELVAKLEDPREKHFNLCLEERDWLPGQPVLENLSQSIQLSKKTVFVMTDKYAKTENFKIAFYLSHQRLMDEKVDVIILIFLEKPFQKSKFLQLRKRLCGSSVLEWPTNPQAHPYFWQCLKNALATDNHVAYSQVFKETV
Experimental: This procedure describes a method for assaying human TLR7 (hTLR7) agonist activity of the compounds disclosed in this specification.
HEK-Blue™ TLR7 cells were added to each well of a 384-well tissue-culture plate (15,000 cells per well) and incubated 16-18 h at 37° C., 5% CO2. Compounds (100 nl) were dispensed into wells containing the HEK-Blue™ TLR cells and the treated cells were incubated at 37° C., 5% CO2. After 18 h treatment ten microliters of freshly-prepared Quanti-Blue™ reagent (Invivogen) was added to each well, incubated for 30 min (37° C., 5% CO2) and SEAP levels measured using an Envision plate reader (OD=620 nm).

CD69 = assay: Induction of CD69 in human whole blood; type: cell-based
Experimental: The induction of Type I interferon (IFN) MX-1 genes and the B-cell activation marker CD69 are downstream events that occur upon activation of the TLR7 pathway. The following is a human whole blood assay that measures their induction in response to a TLR7 agonist.
Heparinized human whole blood was harvested from human subjects and treated with test TLR7 agonist compounds at 1 mM. The blood was diluted with RPMI 1640 media and Echo was used to predot 10 nL per well giving a final concentration of 1 uM (10 nL in 10 uL of blood). After mixing on a shaker for 30 sec, the plates were covered and placed in a 37° C. chamber for o/n=17 hrs. Fixing/lysis buffer was prepared (5×->1× in H2O, warm at 37° C.; Cat #BD 558049) and kept the perm buffer (on ice) for later use.
For surface markers staining (CD69): prepared surface Abs: 0.045 ul hCD14-FITC (ThermoFisher Cat #MHCD1401)+0.6 ul hCD19-ef450 (ThermoFisher Cat #48-0198-42)+1.5 ul hCD69-PE (cat #BD555531)+0.855 ul FACS buffer. Added 3 ul/well, spin1000 rpm for 1 min and mixed on shaker for 30 sec, put on ice for 30 mins. Stop stimulation after 30 min with 70 uL of prewarmed 1× fix/lysis buffer and use Feliex mate to resuspend (15 times, change tips for each plate) and incubate at 37 C for 10 min.
Centrifuge at 2000 rpm for 5 min aspirate with HCS plate washer, mix on shaker for 30 sec and then wash with 70 uL in dPBS and pelleted 2×s (2000 rpm for 5 min) and 50 ul wash in FACS buffer pelleted 1×s (2000 rpm for 5 min). Mix on shaker for 30 sec. For Intracellular markers staining (MX-1): Add 50 ul of BD Perm buffer III and mix on shaker for 30 sec. Incubate on ice for 30 minutes (in the dark). Wash with 50 uL of FACS buffer 2× (spin @2300 rpm×5 min after perm) followed by mixing on shaker for 30 sec. Resuspended in 20 ul of FACS buffer containing MX1 antibody ( )(4812)-Alexa 647: Novus Biologicals #NBP2-43704AF647) 20 ul FACS bf+0.8 ul hlgG+0.04 ul MX-1. Spin 1000 rpm for 1 min, mix on shaker for 30se and the samples were incubated at RT in the dark for 45 minutes followed by washing 2×FACS buffer (spin @2300 rpm×5 min after perm). Resuspend 20 ul (35 uL total per well) of FACS buffer and cover with foil and place in 4° C. to read the following day. Plates were read on iQuePlus. The results were loaded into toolset and […] curves are generated in curve master. The y-axis 100% is set to 1 uM of resiquimod.

[1] = human whole blood, 17 hrs, CD69 surface staining, 100% set to 1 uM of resiquimod, average where assay was performed multiple times, read-out: hWB CD69 EC50
[2] = Homo sapiens, 17 h, read-out: hWB CD69 EC50 (nM)

Row | SMILES | EC50 (human TLR7) | EC50 (CD69; [1]) | EC50 (CD69; [2])
1 | CCCCNc1nc(N)nc2cnn(Cc3ccc(C(=O)N4CCC(CO)CC4)cc3OC)c12 [Compound 112, [1-(4-{[5-amino-7-(butylamino)-1H-pyrazolo[4,3-d]pyrimidin-1-yl]methyl}-3-methoxybenzoyl)piperidin-4-yl]methanol] | 0.154 µM | 81.9 nM | 
2 | CCCCNc1nc(N)nc2cnn(Cc3ccc(C(=O)NC4CCN(C)CC4)cc3OC3CC3)c12 [Compound 121, 4-{[5-amino-7-(butylamino)-1H-pyrazolo[4,3-d]pyrimidin-1-yl]methyl}-3-cyclopropoxy-N-(1-methylpiperidin-4-yl)benzamide] | 0.502 µM |  | 99.1 nM
3 | CCC[C@@H](CO)Nc1nc(N)nc2cnn(Cc3ccc(C(=O)NC4CCN(C)CC4)cc3OC)c12 [Compound 126, 4-[(5-amino-7-{[(2S)-1-hydroxypentan-2-yl]amino}-1H-pyrazolo[4,3-d]pyrimidin-1-yl)methyl]-3-methoxy-N-(1-methylpiperidin-4-yl)benzamide] | 5 µM |  | 326 nM
4 | CCC[C@@H](CCO)Nc1nc(N)nc2cnn(Cc3ccc(C(=O)N4CCN(CCO)CC4)cc3OC)c12 [Compound 123, (3S)-3-{[5-amino-1-({4-[4-(2-hydroxyethyl)piperazine-1-carbonyl]-2-methoxyphenyl}methyl)-1H-pyrazolo[4,3-d]pyrimidin-7-yl]amino}hexan-1-ol] | 0.115 µM | 71.9 nM | 
5 | COc1cc(C(=O)N2CCN(CCO)CC2)ccc1Cn1ncc2nc(N)nc(NCc3cc(C)on3)c21 [Compound 127, 2-(4-{4-[(5-amino-7-{[(5-methyl-1,2-oxazo1-3-yl)methyl]amino}-1H-pyrazolo[4,3-d]pyrimidin-1-yl)methyl]-3-methoxybenzoyl}piperazin-1-yl)ethan-1-ol] | 0.505 µM | 173 nM | 
6 | CCCCNc1nc(N)nc2cnn(Cc3ccc(C(=O)N4CCN(CCO)CC4)cc3OC3CC3)c12 [Compound 122, 2-[4-(4-{[5-amino-7-(butylamino)-1H-pyrazolo[4,3-d]pyrimidin-1-yl]methyl}-3-cyclopropoxybenzoyl)piperazin-1-yl]ethan-1-ol] | 1.19 µM | 340 nM | 
7 | CCCCNc1nc(N)nc2cnn(Cc3ccc(C(=O)N4CCN(CCO)CC4)cc3OC(F)F)c12 [Compound 120, 2-[4-(4-{[5-amino-7-(butylamino)-1H-pyrazolo[4,3-d]pyrimidin-1-yl]methyl}-3-(difluoromethoxy)benzoyl)piperazin-1-yl]ethan-1-ol] | 1.2 µM | 94.6 nM | 
8 | COc1cc(C(=O)N2CCNC(=O)C2)ccc1Cn1ncc2nc(N)nc(NCc3cc(C)on3)c21 [Compound 131, 4-{4-[(5-amino-7-{[(5-methyl-1,2-oxazo1-3-yl)methyl]amino}-1H-pyrazolo[4,3-d]pyrimidin-1-yl)methyl]-3-methoxybenzoyl}piperazin-2-one] | 2.19 µM | 363 nM | 
9 | COc1cc(C(=O)N2CCN(CCO)CC2)ccc1Cn1ncc2nc(N)nc(NCc3noc(C)n3)c21 [Compound 133, 2-(4-{4-[(5-amino-7-{[(5-methyl-1,2,4-oxadiazo1-3-yl)methyl]amino}-1H-pyrazolo[4,3-d]pyrimidin-1-yl)methyl]-3-methoxybenzoyl}piperazin-1-yl)ethan-1-ol] | 1.87 µM | 552 nM | 

Now those with a lower EC50 (human TLR7), led by results:

Row | EC50 (human TLR7) | EC50 (CD69; [1]) | SMILES | EC50 (CD69; [2])
10 | 0.0951 µM | 10.9 nM | COc1cc(C(=O)N2CCN(C)CC2)ccc1Cn1ncc2nc(N)nc(NCc3noc(C)n3)c21 [Compound 132, 1-{[2-methoxy-4-(4-methylpiperazine-1-carbonyl)phenyl]methyl}-N7-[(5-methyl-1,2,4-oxadiazo1-3-yl)methyl]-1H-pyrazolo[4,3-d]pyrimidine-5,7-diamine] | 
11 | 0.078 µM | 6.8 nM | CCCCNc1nc(N)nc2cnn(Cc3ccc(C(=O)NCCN(C)C)cc3OC)c12 [Compound 111, 4-{[5-amino-7-(butylamino)-1H-pyrazolo[4,3-d]pyrimidin-1-yl]methyl}-N-[2-(dimethylamino)ethyl]-3-methoxybenzamide] | 
12 | 0.0416 µM | 42.6 nM | CCCCNc1nc(N)nc2cnn(Cc3ccc(C(=O)N4CCC(CCO)CC4)cc3OC)c12 [Compound 116, 2-[1-(4-{[5-amino-7-(butylamino)-1H-pyrazolo[4,3-d]pyrimidin-1-yl]methyl}-3-methoxybenzoyl)piperidin-4-yl]ethan-1-ol] | 
13 | 0.0297 µM | 49.6 nM | CCCCNc1nc(N)nc2cnn(Cc3ccc(C(=O)N4CCC(N(C)C)CC4)cc3OC)c12 [Compound 109, N7-butyl-1-({4-[4-(dimethylamino)piperidine-1-carbonyl]-2-methoxyphenyl}methyl)-1H-pyrazolo[4,3-d]pyrimidine-5,7-diamine] | 
14 | 0.0208 µM | 4.5 nM | CCCCNc1nc(N)nc2cnn(Cc3ccc(C(=O)N4CCN(C)CC4)cc3OC)c12 [Compound 106, N7-butyl-1-{[2-methoxy-4-(4-methylpiperazine-1-carbonyl)phenyl]methyl}-1H-pyrazolo[4,3-d]pyrimidine-5,7-diamine] | 

Source: patent publication US20230140430A1, “1H-PYRAZOLO[4,3-d]PYRIMIDINE COMPOUNDS AS TOLL-LIKE RECEPTOR 7 (TLR7) AGONISTS” (BRISTOL-MYERS SQUIBB COMPANY, priority 2020, published 2023)
